Source: patent publication US20260325473A1, “N-Beta-Hydroxybutyryl-Amino Acids and Related Compositions and Methods” (The Board of Trustees of the Leland Stanford Junior …, priority 2023, published 2026)

How the values were obtained:
CNDP2 [1] = target: T1, CNDP2 (Mus musculus, UniProt Q9D1A2); experiment: Tissue enzyme activity, WT or CNDP2-KO mouse tissue lysates; assay type: biochemical; settings: role: product; for synthesis activity in WT kidney and gut: 1 h, 37° C
T1 sequence (Q9D1A2 1-475): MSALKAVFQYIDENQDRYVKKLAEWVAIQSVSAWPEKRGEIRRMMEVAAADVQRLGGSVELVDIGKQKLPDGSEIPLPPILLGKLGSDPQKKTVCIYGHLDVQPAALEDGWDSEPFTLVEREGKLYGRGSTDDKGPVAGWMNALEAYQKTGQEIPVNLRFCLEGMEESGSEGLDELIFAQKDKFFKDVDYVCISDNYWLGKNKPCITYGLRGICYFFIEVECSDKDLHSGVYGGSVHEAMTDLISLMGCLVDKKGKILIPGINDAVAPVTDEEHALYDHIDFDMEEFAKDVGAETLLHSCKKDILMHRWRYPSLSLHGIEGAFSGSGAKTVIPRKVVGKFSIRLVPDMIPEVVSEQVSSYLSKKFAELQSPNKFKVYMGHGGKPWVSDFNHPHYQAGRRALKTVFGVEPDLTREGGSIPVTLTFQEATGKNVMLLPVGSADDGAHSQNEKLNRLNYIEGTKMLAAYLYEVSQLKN
Procedure: Tissue enzyme activity assays. Mouse tissues were mixed with cold PBS and homogenized using a Benchmark BeadBlaster Homogenizer at 4 °C. Protein concentrations were adjusted and the resulting crude was filtered through a 0.45-μm filter to remove insoluble materials. The in vitro reactions were conducted in Eppendorf tubes with 200 μg protein and incubation with the corresponding substrates at 37° C. for 1 hour. After that time, 10 μl of HCl and 400 μl of ethyl acetate were added in the BHB and lactate reactions and the samples were vortexed for 30 s. Reactions were centrifuged at 4° C. for 10 min at 15,000 r.p.m. and total of 300 μl from the top layer was transferred to a new Eppendorf tube and dried down under a stream of nitrogen. The residue was re-suspended in 100 μl of an 2:1:1 mixture of acetonitrile: methanol: water. The mixture was centrifuged at 4° C. for 10 min at 15,000 r.p.m. and the supernatant was transferred to a LC-MS vial. For carnosine reactions, the reactions were not acidified and were directly quenched with 300 μl of an 2:1:1 mixture of acetonitrile: methanol: water after the 1 h incubation and vortexed for 30 s. The mixture was centrifuged at 4° C. for 10 min at 15,000 r.p.m. and the supernatant was transferred to a LC-MS vial.

DIO mice = experiment: Chronic administration in DIO mice: body weight and food intake; assay type: in vivo, mouse; settings: for body weight, head-to-head keto amino acids: 5 days, vs vehicle
Procedure: General animal information. Animal experiments were performed according to procedure approved by the Stanford University Administrative Panel on Laboratory Animal Care (APLAC). Mice were maintained in 12-hr light-dark cycles at 22° C. and ~50% relative humidity and fed a standard irradiated rodent chow diet. Where indicated, high-fat diet (D12492, Research Diets 60% kcal from fat) and ketogenic diet (D06040601, Research Diets, 80% kcal fat/15% kcal protein/5% kcal carbohydrate) was used. Male C57BL/6J (stock no. 000664) and male C57BL/6J DIO mice (stock no. 380050) were purchased from Jackson Laboratory. Male C57BL/6NCrl (stock no. 027) mice were purchased from Charles River Laboratory. Whole body CNDP2-KO mice (catalog number, C57BL/6NCrl-Cndp2em1 (IMPC) Mbp/Mmucd, RRID: MMRRC_043492-UCD) were obtained from the Mutant Mouse Regional Resource Center, a NCRR-NIH funded strain repository. For in vivo injection of mice with metabolites, compounds were dissolved in 18:1:1 (by volume) of saline/Kolliphor EL (Sigma Aldrich)/DMSO. Compounds were administered to mice daily via intraperitoneal injections at 5 μl/g body weight at the indicated doses. For all injection experiments, mice were mock injected with the vehicle for 3-5 days until body weights have stabilized. Sample sizes were determined on the basis of previous experiments using similar methodologies. For metabolite administration experiments, mice were randomly assigned to treatment groups. Experimenters were not blinded to groups.

CNDP2 [2] = target: T1, CNDP2; experiment: In situ live cell enzyme activity assay, CNDP2- or GFP-transfected HEK293T cells; assay type: cell-based; parameters: expressed in transfected cells; host or cells: HEK293T (lysate); settings: role: product; BHB-treated; conditioned media
Procedure: Cellular enzyme activity assays. Cells were plated in 12-well plates at 70-80% confluence. The next day, cells were washed two times with PBS and incubated in 0.5 ml serum-free medium. After overnight incubation, 400 μl of medium was removed and 20 μl of 1 M HCl were added to acidify the medium and to protonate keto amino acids. Ethyl acetate (400 μl) was added into each sample and reactions were vortexed for 30 s to extract keto amino acids into the organic layer. Reactions were centrifuged at 4° C. for 10 min at 15,000 r.p.m. and total of 300 μl from the top layer was transferred to a new Eppendorf tube and dried down under a stream of nitrogen. The residue was re-suspended in 150 μl of an 2:1:1 mixture of acetonitrile: methanol: water. The mixture was centrifuged at 4° C. for 10 min at 15,000 r.p.m. and the supernatant was transferred to a LC-MS vial. Cells were kept on ice to collect the lysate. PBS (150 μl) was added into each well and the cells scraped into an Eppendorf tube. This step was repeated again to ensure all cells were collected. Cells were then centrifuged at 4° C. for 10 min at 2,000g and the supernatant removed to obtain the cell pellet. A volume of 150 μl of a 2:1:1 mixture of acetonitrile: methanol:water mixture was used to lyse the cells and precipitate large proteins. […]

Compound	synthesis activity in WT brain, liver, and quadriceps (CNDP2 [1]; BHB 20 mM + Phe 20 mM)	reduction of synthesis activity in CNDP2-KO vs WT, brain (CNDP2 [1]; BHB 20 mM + Phe 20 mM, brain) [%]	reduction of synthesis activity in CNDP2-KO vs WT, gut (CNDP2 [1]; BHB 20 mM + Phe 20 mM, gut) [%]	reduction of synthesis activity in CNDP2-KO vs WT, kidney (CNDP2 [1]; BHB 20 mM + Phe 20 mM, kidney) [%]	reduction of synthesis activity in CNDP2-KO vs WT, liver (CNDP2 [1]; BHB 20 mM + Phe 20 mM, liver) [%]	reduction of synthesis activity in CNDP2-KO vs WT, quadriceps (CNDP2 [1]; BHB 20 mM + Phe 20 mM, quadriceps) [%]	synthesis activity in WT kidney and gut (CNDP2 [1]; BHB 20 mM + amino acid 20 mM)	food intake and body weight, related metabolites and dipeptides (DIO mice; 50 mg/kg IP, 9 days)	body weight and food intake, conjugate vs components (DIO mice; 50 mg/kg/day IP, BHB or phenylalanine at the same doses, 9 days)	body weight gain, 2-week study (DIO mice; 50 mg/kg/day IP, 2 weeks)	daily food intake, 2-week study (DIO mice; 50 mg/kg/day IP, 2 weeks)	body weight gain (DIO mice; 50 mg/kg/day IP, 10-day period)	suppression of daily food intake, average (DIO mice; 50 mg/kg/day IP, 10-day period) [%]	body weight, head-to-head keto amino acids (DIO mice; 50 mg/kg/day IP)	weight loss compared with pair-fed controls (DIO mice; 50 mg/kg/day IP, 6 days)	keto amino acid production in CNDP2-transfected live cells (CNDP2 [2])	BHB-amino acid synthesis activity in CNDP2-KO kidney and gut (CNDP2 [1]; BHB 20 mM + amino acid 20 mM)
CC(O)CC(=O)N[C@@H](Cc1ccccc1)C(=O)O (some centres unmarked) [BHB-Phe, N-betahydroxybutyryl-phenylalanine]	lower, but detectable	> 85	> 95	> 95	> 75	> 60	highest BHB-Phe synthesis activity	suppressed food intake and body weight	efficiently suppressed body weight and food intake	concomitant reduction in body weight gain	durable suppression of daily food intake	concomitant reduction in body weight gain	−30	effective in suppressing body weight	lost the same amount of weight as pair-fed controls	robust production	–
CC(O)CC(=O)N[C@H](C(=O)O)C(C)C (some centres unmarked) [BHB-Val, N-betahydroxybutyryl-valine]	–	–	–	–	–	–	highest BHB-amino acid synthesis activity	–	–	–	–	–	–	effective in suppressing body weight	–	robust production	largely abolished
